Holding throughout (experiment): minimal inhibitory concentration, agar dilution method (in vitro)
Common to all, as to type: cell-based

One assay concerns Escherichia coli NIHJ. An excerpt: (§1) When determined according to the agar dilution method, the penicillins [I] afford the minimal inhibitory concentrations as shown in the following Table 1: […]
The subject of assay [1] is Pseudomonas aeruginosa 104.
Source text: as §1

For assay [2], the system named is Klebsiella pneumoniae 602.
Source text: as §1

The next assay has as its system Proteus miravilis 2425.
Source text: as §1

Assay [3] deals with Staphylococcus aureus 209P.
Source text: as §1

≈ marks a conversion by molar mass, not a printed value. Where a name gives a salt, the structure may show the parent alone.

In the case of `CCOC(=O)Oc1c(C(=O)NC(C(=O)N[C@@H]2C(=O)N3[C@@H]2SC(C)(C)[C@@H]3C(=O)O)c2ccccc2)cnc2ccc(NC(=O)OCc3ccccc3)cc12` (some centres unmarked) [Example 24], the minimal inhibitory concentration (MIC) amounted to 12.5 µg/mL (≈ 16.9 µM) in the assay with Escherichia coli NIHJ; 12.5 µg/mL (≈ 16.9 µM) in assay [1]; 1.56 µg/mL (≈ 2.1 µM) in assay [2]; 12.5 µg/mL (≈ 16.9 µM) in the assay with Proteus miravilis 2425; 0.39 µg/mL (≈ 0.526 µM) in assay [3].

On to `CSc1ccc2ncc(C(=O)NC(C(=O)N[C@@H]3C(=O)N4[C@@H]3SC(C)(C)[C@@H]4C(=O)O)c3ccccc3)c(O)c2n1` (some centres unmarked) [Example 11], for which the MIC in the assay with Escherichia coli NIHJ amounted to 6.25 µg/mL (≈ 11 µM); in assay [1], 3.13 µg/mL (≈ 5.51 µM); in the assay on Proteus miravilis 2425 it was 3.13 µg/mL (≈ 5.51 µM); in assay [3], 0.1 µg/mL (≈ 0.176 µM).

Turning to `Cc1nc2cc3c(cc2c(O)c1C(=O)N[C@@H](C(=O)N[C@@H]1C(=O)N2[C@@H]1SC(C)(C)[C@@H]2C(=O)O)c1ccccc1)OCO3` [Example 7, D-(-)-α-(2-methyl-6,7-methylenedioxy-4-hydroxyquinoline-3-carbonamido)-benzylpenicillin potassium salt], the MIC in the assay on Escherichia coli NIHJ turned out to be 12.5 µg/mL; in assay [1], 12.5 µg/mL; against Proteus miravilis 2425, 6.25 µg/mL; in assay [3] it was 0.2 µg/mL.

Regarding `Cc1ccc2ncc(C(=O)NC(C(=O)NC3C(=O)N4C3SC(C)(C)C4C(=O)O)c3ccccc3)c(O)c2n1` (centres unmarked) [Example 32], the MIC against Escherichia coli NIHJ came to 1.56 µg/mL (≈ 2.91 µM); in assay [1], 3.13 µg/mL (≈ 5.84 µM); in assay [2] it was 3.13 µg/mL (≈ 5.84 µM); in the assay with Proteus miravilis 2425, 1.56 µg/mL (≈ 2.91 µM); in assay [3] it was 0.78 µg/mL (≈ 1.46 µM).

As to `CC1(C)SC2C(NC(=O)C(NC(=O)c3cnc4cnc(N)nc4c3O)c3ccccc3)C(=O)N2C1C(=O)O` (centres unmarked) [Example 59], the MIC came to 3.13 µg/mL (≈ 5.82 µM) against Escherichia coli NIHJ; 3.13 µg/mL (≈ 5.82 µM) in assay [1]; 1.56 µg/mL (≈ 2.9 µM) in assay [2]; 3.13 µg/mL (≈ 5.82 µM) against Proteus miravilis 2425; 0.78 µg/mL (≈ 1.45 µM) in assay [3].

In the case of `CC1(C)SC2C(NC(=O)C(NC(=O)c3cnc4ccncc4c3O)c3ccccc3)C(=O)N2C1C(=O)O` (centres unmarked) [Example 43], the MIC in the assay on Escherichia coli NIHJ is 12.5 µg/mL (≈ 24 µM); in assay [1], 6.25 µg/mL (≈ 12 µM); in assay [2] it was 6.25 µg/mL (≈ 12 µM); in the assay on Proteus miravilis 2425, 12.5 µg/mL (≈ 24 µM); in assay [3], 0.78 µg/mL (≈ 1.5 µM).

With `CC1(C)SC2C(NC(=O)C(NC(=O)c3cnc4cccnc4c3O)c3cccs3)C(=O)N2C1C(=O)O` (centres unmarked) [Example 39], the MIC with Escherichia coli NIHJ came out at 1.56 µg/mL (≈ 2.96 µM); in assay [1], 6.25 µg/mL (≈ 11.8 µM); in assay [2], 3.13 µg/mL (≈ 5.93 µM); against Proteus miravilis 2425, 3.13 µg/mL (≈ 5.93 µM); in assay [3] it was 0.78 µg/mL (≈ 1.48 µM).

Turning to `CCOC(=O)Oc1c(C(=O)N[C@@H](C(=O)N[C@@H]2C(=O)N3[C@@H]2SC(C)(C)[C@@H]3C(=O)O)c2ccccc2)cnc2ccccc12` [Example 1, D-(-)-α-(4-ethoxycarbonyloxyquinoline-3-carbonamido)-benzylpenicillin], the MIC was found to be 6.25 µg/mL (≈ 10.5 µM) in the assay on Escherichia coli NIHJ, 3.13 µg/mL (≈ 5.28 µM) in assay [1], 1.56 µg/mL (≈ 2.63 µM) with Proteus miravilis 2425 and 0.2 µg/mL (≈ 0.337 µM) in assay [3].

On to `CC(C)(C)C(=O)Oc1c(C(=O)N[C@@H](C(=O)N[C@@H]2C(=O)N3[C@@H]2SC(C)(C)[C@@H]3C(=O)O)c2ccccc2)cnc2ccccc12` [Example 6, D-(-)-α-(4-pivaloyloxyquinoline-3-carbonamido)-benzylpenicillin], for which the MIC was 6.25 µg/mL (≈ 10.3 µM) in the assay with Escherichia coli NIHJ, 3.13 µg/mL (≈ 5.18 µM) in assay [1], 1.56 µg/mL (≈ 2.58 µM) in the assay with Proteus miravilis 2425 and 0.1 µg/mL (≈ 0.165 µM) in assay [3].

Regarding `COc1c(C(=O)NC(C(=O)N[C@@H]2C(=O)N3[C@@H]2SC(C)(C)[C@@H]3C(=O)O)c2ccccc2)cnc2cc3c(cc12)OCO3` (some centres unmarked) [Example 10], the MIC turned out to be 12.5 µg/mL (≈ 21.6 µM) against Escherichia coli NIHJ, 25 µg/mL (≈ 43.2 µM) in assay [1], 25 µg/mL (≈ 43.2 µM) with Proteus miravilis 2425 and 0.2 µg/mL (≈ 0.346 µM) in assay [3].

Regarding `CC1(C)S[C@@H]2[C@H](NC(=O)C(NC(=O)c3cnc4cc5c(cc4c3S)OCO5)c3ccccc3)C(=O)N2[C@H]1C(=O)O` (some centres unmarked) [Example 9], the MIC against Escherichia coli NIHJ stood at 6.25 µg/mL (≈ 10.8 µM); in assay [1], 3.13 µg/mL (≈ 5.39 µM); in the assay with Proteus miravilis 2425, 3.13 µg/mL (≈ 5.39 µM); in assay [3] it was 0.2 µg/mL (≈ 0.344 µM).

`CN(C)c1ccc2ncc(C(=O)NC(C(=O)N[C@@H]3C(=O)N4[C@@H]3SC(C)(C)[C@@H]4C(=O)O)c3ccccc3)c(O)c2n1` (some centres unmarked) [Example 12]: the minimum inhibitory concentration (MIC) stood at 6.25 µg/mL (≈ 11.1 µM) in the assay with Escherichia coli NIHJ, 3.13 µg/mL (≈ 5.54 µM) in assay [1], 3.13 µg/mL (≈ 5.54 µM) against Proteus miravilis 2425 and 0.1 µg/mL (≈ 0.177 µM) in assay [3].

On to `CCOC(=O)Oc1c(C(=O)N[C@@H](C(=O)N[C@@H]2C(=O)N3[C@@H]2SC(C)(C)[C@@H]3C(=O)O)c2ccccc2)cnc2nc(C)ccc12` [Example 5, D-(-)-α-(7-methyl-4-ethoxycarbonyloxy-1,8-naphthyridine-3-carbonamido)-benzylpenicillin], for which the MIC in the assay on Escherichia coli NIHJ stood at 12.5 µg/mL (≈ 20.6 µM); in assay [1], 12.5 µg/mL (≈ 20.6 µM); in the assay on Proteus miravilis 2425, 6.25 µg/mL (≈ 10.3 µM); in assay [3], 0.78 µg/mL (≈ 1.28 µM).

In the case of `CCSc1c(C(=O)NC(C(=O)N[C@@H]2C(=O)N3[C@@H]2SC(C)(C)[C@@H]3C(=O)O)c2ccccc2)cnc2cc3c(cc12)OCO3` (some centres unmarked) [Example 8], the MIC in the assay with Escherichia coli NIHJ was found to be 12.5 µg/mL (≈ 20.5 µM); in assay [1], 25 µg/mL (≈ 41.1 µM); in the assay with Proteus miravilis 2425, 12.5 µg/mL (≈ 20.5 µM); in assay [3], 0.2 µg/mL (≈ 0.329 µM).

On to `CC1(C)S[C@@H]2[C@H](NC(=O)C(NC(=O)c3cnc4cc(C(F)(F)F)ccc4c3O)c3cccs3)C(=O)N2[C@H]1C(=O)O` (some centres unmarked) [Example 25], for which the MIC against Escherichia coli NIHJ stood at 12.5 µg/mL (≈ 21 µM); in assay [1], 6.25 µg/mL (≈ 10.5 µM); in the assay on Proteus miravilis 2425 it was 3.16 µg/mL (≈ 5.31 µM); in assay [3], 0.39 µg/mL (≈ 0.656 µM).

These data come from patent US3951955A, “Penicillins substituted with heterocyclic groups” (Sumitomo Chemical Company, Limited, priority 1970, dated 1976).
